Source: patent publication US10576145B2, “CD200 inhibitors and methods of use thereof” (REGENTS OF THE UNIVERSITY OF MINNESOTA, priority 2014, dated 2020)
“Also recorded” adds a separate entry of the source.

Key:
non-tumor bearing mice = assay: Vaccination of non-tumor bearing mice with OVA + glioma-derived exosomes + antagonist; assay type: in vivo
Procedure: FIGS. 12A-12C. […] Tumor and non-tumor bearing mice were vaccinated with OVA+Poly:ICLC+/−the CD200R antagonist 6059 and analyzed for FIG. 12A) SIINFEKL/Kb+CD8+ T cell expansion (‘SIINFEKL’ disclosed as SEQ ID NO: 11). FIG. 12B) Lymphocytes were harvested and stimulated with SIINFEKL peptide (SEQ ID NO: 11). Supernatants were analyzed for TNFα and IFNγ secretion. FIG. 12C) The antagonist 6059 was added to OVA+exosomes. Error bars indicate +/−SEM (n=4/group; *P<0.05; by t-test). FIGS. 12A-12C discloses ‘SIINFEKL’ disclosed as SEQ ID NO: 11.
Whether the different antagonists described by Gorczynski et. al. (J Surg Res 2008; 145(1): 87-96) could modulate or reverse the suppressive effects of the tumor microenvironment was also investigated. It was concluded that different antagonists either act through different CD200R isoforms or have different biological effects on the same receptor. These conclusions were supported by experiments where splenocytes were pulsed with OVA+selected CD200R antagonists (6061, 6069, 4004, 4006, 4013) for 24 hours. The splenocytes were then washed and cultured for 48 hours with the addition of OT-1 T cells. The cultures were then assessed for cytokine production using a flow cytometric bead array. […] Other antagonists were similarly evaluated.

EMT6 tumor bearing mice = assay: EMT6 breast carcinoma model: tumor lysate + CpG +/- competitive inhibitor, survival; assay type: in vivo, BALB/c mice
Procedure: FIG. 6. Percent survival of mice inoculated with 1×10^6 EMT6 cells. To determine if our competitive inhibitors worked in other tumor models, mice were inoculated in the fat pad with 1×10^6 EMT6 cells. Specifically, mice were vaccinated with 65 μg of EMT6 tumor lysates+50 μg of adjuvant CpG and 50 μg of different completive inhibitors (6059, 4004, 4013 and 6061) and monitored for survival. Saline and tumor lysate+adjuvant CpG were used as controls.
FIGS. 19A-19B. Select CD200 antagonists enhance survival. (FIG. 19A) EMT6 tumor bearing mice were vaccinated with tumor lysate, CpG+/−CD200 antagonist 4004, 4013 or 6059. […] Log-rank analysis was used for survival.
Tumors were implanted into female C57BL/6 mice (6-8 wk old) (Jackson Laboratory) and maintained in a pathogen-free facility according to the guidelines of the University of Minnesota Animal Care and Use Committee. The GL261 orthotopic transplant model was established in C57BL/6 (B6) mice by inoculation with 15,000 GL261-Luc^+ cells in 1 μl of saline. Tumors were implanted stereotactically into the right striatum; coordinates were 2.5 mm lateral, 0.5 mm anterior of bregma, and 3 mm deep from the cortical surface of the brain^19. Tumor burden was determined by bioluminescent imaging. Light emitted from the tumors was quantified using Living Image software (Xenogen) and expressed as photons per second per centimeter squared per steradian (p/s/cm^2/sr). GL261 cells for tumor lysate vaccines were cultured in neural stem cell media consisting of DMEM/F12 (1:1) with L-glutamine, sodium bicarbonate, penicillin/streptomycin (100 U/ml), B27 and N2 supplements (Life Technologies), and 0.1 mg/ml Normocin (Invivogen). Cultures were maintained at 5% 02 and supplemented with 20 ng/ml EGF and FGF semiweekly (R&D Systems, Minneapolis, Minn.). […] Mice were euthanized when tumors reached 1000 mm^3. […] Tumor cells used to establish both models were cultured in DMEM containing 10% FBS, penicillin/streptomycin (100 U/ml), and 0.1 mg/ml Normocin (Invivogen) in atmospheric oxygen.

NTIGDGGCY [Antagonist 6059]
Suppression induced by glioma-derived exosomes (non-tumor bearing mice): partially reversed the suppression induced by exosomes
Survival (EMT6 tumor bearing mice): results translated to a breast carcinoma (EMT6) model; also recorded: significantly extended survival benefit
